Where a SMILES comes first, the peptide text is derived from it. The star is where a group is joined. Cbz = O=C(OCc1ccccc1)*
target: T1, Thermolysin (Bacillus thermoproteolyticus, UniProt P00800); assay: Compound was tested in vitro for inhibitory activity against thermolysin; settings: not given
T1 sequence (P00800 whole entry): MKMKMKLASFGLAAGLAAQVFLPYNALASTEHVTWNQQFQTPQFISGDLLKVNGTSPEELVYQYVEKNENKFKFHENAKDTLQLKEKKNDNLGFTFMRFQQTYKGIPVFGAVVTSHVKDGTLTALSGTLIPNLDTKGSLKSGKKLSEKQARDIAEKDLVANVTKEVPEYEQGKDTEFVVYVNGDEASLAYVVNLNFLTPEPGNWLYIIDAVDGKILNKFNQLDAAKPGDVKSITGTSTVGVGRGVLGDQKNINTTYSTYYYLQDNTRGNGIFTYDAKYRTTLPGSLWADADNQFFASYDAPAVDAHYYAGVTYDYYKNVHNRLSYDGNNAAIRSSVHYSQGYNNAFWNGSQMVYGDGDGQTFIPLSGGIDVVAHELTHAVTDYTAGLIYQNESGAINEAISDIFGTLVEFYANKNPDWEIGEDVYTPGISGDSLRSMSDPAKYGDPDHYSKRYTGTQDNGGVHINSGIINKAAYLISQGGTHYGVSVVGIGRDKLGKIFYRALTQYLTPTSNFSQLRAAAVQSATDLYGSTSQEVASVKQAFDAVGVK

Compound CC(C)C[C@H](C(=O)NO)C(=O)N[C@@H](C)C(=O)NCC(N)=O has an IC50 of 64 nM.

target: T2, Endothelin-converting enzyme 1 (Homo sapiens) (UniProt P42892); assay: Compound was tested in vitro for percent inhibition of a putative Endothelin-converting enzyme at 100 uM partially purified from rabbit lung membrane; assay type: tissue-based; settings: Oryctolagus cuniculus, target entry is the homologue from another species
T2 sequence (whole entry): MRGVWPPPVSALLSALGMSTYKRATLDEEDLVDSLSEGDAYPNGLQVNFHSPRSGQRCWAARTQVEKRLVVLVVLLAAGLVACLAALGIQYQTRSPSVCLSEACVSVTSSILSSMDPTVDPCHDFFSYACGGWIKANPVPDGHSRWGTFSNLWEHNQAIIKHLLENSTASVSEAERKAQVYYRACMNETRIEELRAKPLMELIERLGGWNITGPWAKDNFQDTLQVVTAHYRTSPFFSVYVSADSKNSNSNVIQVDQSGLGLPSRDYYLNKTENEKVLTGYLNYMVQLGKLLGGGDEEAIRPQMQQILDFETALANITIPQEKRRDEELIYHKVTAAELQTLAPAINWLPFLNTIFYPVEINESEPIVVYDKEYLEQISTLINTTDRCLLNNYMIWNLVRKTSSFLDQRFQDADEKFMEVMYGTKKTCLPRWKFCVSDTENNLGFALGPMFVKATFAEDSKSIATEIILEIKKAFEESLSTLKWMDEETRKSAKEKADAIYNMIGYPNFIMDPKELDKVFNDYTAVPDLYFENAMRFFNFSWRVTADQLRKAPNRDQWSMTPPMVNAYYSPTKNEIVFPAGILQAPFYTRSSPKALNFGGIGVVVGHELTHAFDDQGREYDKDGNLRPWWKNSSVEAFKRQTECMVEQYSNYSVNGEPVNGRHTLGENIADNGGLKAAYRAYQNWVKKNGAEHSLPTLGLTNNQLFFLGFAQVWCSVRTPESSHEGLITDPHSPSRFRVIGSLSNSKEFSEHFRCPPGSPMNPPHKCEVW

Going from COC(=O)[C@H](Cc1c[nH]c2ccccc12)NC(=O)[C@H](CC(C)C)NC(=O)[C@H](CS)NC(=O)OCc1ccccc1 (Cbz-Cys-Leu-Trp-OMe) to CC(C)C[C@H](NC(=O)[C@H](CS)NC(=O)OCc1ccccc1)C(=O)N[C@@H](Cc1c[nH]c2ccccc12)C(=O)O (Cbz-Cys-Leu-Trp-OH), the inhibition falls from 83% to 75%.

Going from O=C(N[C@@H](CS)C(=O)N[C@@H](Cc1c[nH]c2ccccc12)C(=O)O)OCc1ccccc1 (Cbz-Cys-Trp-OH) to COC(=O)[C@H](Cc1c[nH]c2ccccc12)NC(=O)[C@H](CS)NC(=O)OCc1ccccc1 (Cbz-Cys-Trp-OMe), the inhibition rises from 90% to 93%.

COC(=O)[C@H](CC(C)C)NC(=O)[C@H](CS)NC(=O)OCc1ccccc1 was tested, and the inhibition was 89%.

Source: ChEMBL document CHEMBL1127109, “Thiol and hydroxamic acid containing inhibitors of endothelin converting enzyme” (Bioorg Med Chem Lett, 1993)
